# Paper PMC12285759 (RSC Advances, 2025)
# Tested on: Vero Cells
# Assay: MTT assay, cytotoxicity of the test compounds
# Assay type: cell-based
# Conditions: not tested for inhibitory effect
smiles,measurement,value
O=c1ccn([C@@H]2O[C@H](COCc3ccccc3)[C@H](OCc3ccccc3)[C@H](OCc3ccccc3)[C@H]2I)c(=O)[nH]1 [3h],cytotoxicity (in words),cytotoxic
